Assay results from patent US20220213061A9, “HETEROCYCLIC COMPOUNDS FOR MODULATING NR2F6” (TES Pharma S.r.l., priority 2020, published 2022).
Where a name gives a salt, the structure may show the parent alone.

molecular target: T1, recombinant human NR2F6 protein (Homo sapiens, UniProt P10588); assay: Biochemical NR2F6 binding assay (EnSpire label-free); settings: label-free binding to immobilized purified recombinant human NR2F6; ligands 1 nM to 100 uM, 1% DMSO
T1 sequence (P10588 1-404): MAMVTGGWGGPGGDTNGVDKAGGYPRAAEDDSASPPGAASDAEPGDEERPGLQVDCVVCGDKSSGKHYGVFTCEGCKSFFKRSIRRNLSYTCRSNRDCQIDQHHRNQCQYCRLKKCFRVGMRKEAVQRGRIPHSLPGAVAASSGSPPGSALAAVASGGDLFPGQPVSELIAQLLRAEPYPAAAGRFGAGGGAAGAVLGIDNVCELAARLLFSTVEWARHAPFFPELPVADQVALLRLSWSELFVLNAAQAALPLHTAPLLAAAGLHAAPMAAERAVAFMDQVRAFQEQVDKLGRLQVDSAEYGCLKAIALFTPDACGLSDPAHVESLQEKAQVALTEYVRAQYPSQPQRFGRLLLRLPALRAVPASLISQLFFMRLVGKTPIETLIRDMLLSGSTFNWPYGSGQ
Summary of the method: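 Recombinant human NR2F6 was immobilized at pH 4.5 (50 μg/well, 16 h, 4° C) on label-free biosensor plates. Ligands were tested from 1 nM to 100 uM in 1% DMSO, with readings over 30 minutes. Binding was measured as reflected-wavelength shift (pm), and EC50 was derived from concentration-response curves.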

| Compound | EC50 [µM] |
| --- | --- |
| O=C(Nc1cccc2cnccc12)[C@H]1CNC[C@@H]1c1cccs1 [Compound I-44, (3R,4R)—N-(Isoquinolin-5-yl)-4-(thiophen-2-yl)pyrrolidine-3-carboxamide dihydrochloride] | > 50 |
| O=C(Nc1cccc(-c2cccnc2)c1)c1c[nH]cc1-c1ccccc1 [Compound I-51, 4-Phenyl-N-[3-(pyridin-3-yl)phenyl]-1H-pyrrole-3-carboxamide] | > 50 |
| O=C(Nc1cccc2cnccc12)[C@@H]1CNC[C@H]1c1cccs1 [Compound I-56, (3S,4S)—N-(Isoquinolin-5-yl)-4-(thiophen-2-yl)pyrrolidine-3-carboxamide] | > 50 |
| CN(C(=O)[C@H]1CNC[C@@H]1c1ccccc1)c1cccc2cnccc12 [Compound I-57, (3R,4S)—N-(Isoquinolin-5-yl)-N-methyl-4-phenylpyrrolidine-3-carboxamide dihydrochloride] | > 50 |
| O=C(Nc1cccc2cnccc12)[C@H]1CNC[C@@H]1c1nccs1 [Compound I-58, (3R,4R)—N-(Isoquinolin-5-yl)-4-(1,3-thiazol-2-yl)pyrrolidine-3-carboxamide dihydrochloride] | > 50 |
| O=C(Nc1cccc2cnccc12)[C@@H]1CNC[C@H]1c1nccs1 [Compound I-59, (3S,4S)—N-(Isoquinolin-5-yl)-4-(1,3-thiazol-2-yl)pyrrolidine-3-carboxamide dihydrochloride] | > 50 |
| O=C(Nc1cccc2cnccc12)[C@@H]1CNC[C@@H]1c1ccccc1 [Compound I-66, (3S,4S)—N-(Isoquinolin-5-yl)-4-phenylpyrrolidine-3-carboxamide dihydrochloride] | > 50 |
| O=C(NCc1cccc2cnccc12)[C@H]1CNC[C@@H]1c1ccccc1 [Compound I-67, (3R,4S)—N-(Isoquinolin-5-ylmethyl)-4-phenylpyrrolidine-3-carboxamide dihydrochloride] | > 50 |
| O=C(Nc1cccc2cnccc12)N1CCC(c2ccccc2)C1 (centres unmarked) [Compound I-79, N-(Isoquinolin-5-yl)-3-phenylpyrrolidine-1-carboxamide] | > 50 |
| O=C(Nc1cccc2cnccc12)[C@H]1CNC[C@@H]1c1ccc(F)cc1 [Compound I-81, (3R,4S)-4-(4-Fluorophenyl)-N-(isoquinolin-5-yl)pyrrolidine-3-carboxamide dihydrochloride] | > 50 |
| O=C(Nc1cccc2cnccc12)[C@H]1CNC[C@@H]1c1ccc(C(F)(F)F)cc1 [Compound I-82, (3R,4S)-4-(4-Trifluorophenyl)-N-(isoquinolin-5-yl)pyrrolidine-3-carboxamide dihydrochloride] | > 50 |
| Cn1ccc2c(NC(=O)[C@H]3CNC[C@@H]3c3ccccc3)cccc2c1=O [Compound I-84, (3R,4S)—N-(2-Methyl-1-oxo-1,2-dihydroisoquinolin-5-yl)-4-phenylpyrrolidine-3-carboxamide hydrochloride] | > 50 |
| O=C(N[C@H]1C[C@H](c2ccccc2)C1)[C@@H]1CNC[C@H]1c1ccccc1 [Compound I-117, (3S,4R)-4-Phenyl-N-(trans-3-phenylcyclobutyl)pyrrolidine-3-carboxamide hydrochloride] | 1 to 10 |
| O=C(Nc1cccc(Oc2ccc(C(F)(F)F)nc2)c1)[C@H]1CNC[C@@H]1c1ccccc1 [Compound I-119, 3R,4S)-4-Phenyl-N-(3-{[6-(trifluoromethyl)pyridin-3-yl]oxy}phenyl) pyrrolidine-3-carboxamide dihydrochloride] | 1 to 10 |
| O=C(Nc1cccc(Oc2ccc(C(F)(F)F)nc2)c1)[C@@H]1CNC[C@H]1c1ccccc1 [Compound I-120, (3S,4R)-4-Phenyl-N-(3-{[6-(trifluoromethyl)pyridin-3-yl]oxy}phenyl) pyrrolidine-3-carboxamide dihydrochloride] | 1 to 10 |
| O=C(NC1CCN(c2ccc(F)cc2)CC1)[C@@H]1CNC[C@H]1c1ccccc1 [Compound I-121, (3S,4R)-3-{[1-(4-Fluorophenyl)Ipiperidin-4-yl]carbamoyl]}-4-phenylpyrrolidine dihydrochloride] | 1 to 10 |
| O=C(NC1CCN(c2ccccc2)CC1)[C@@H]1CNC[C@H]1c1ccccc1 [Compound I-123, (3S,4R)-3-[(l-Phenylpiperidin-4-yl)carbamoyl]-4-phenylpyrrolidine dihydrochloride] | 1 to 10 |

Next, values leading:

| EC50 [µM] | Compound |
| --- | --- |
| 1 to 10 | O=C(Nc1cccc(-c2ccccc2)c1)[C@@H]1CNC[C@H]1c1ccccc1 [Compound I-42, (3S,4R)—N-(Biphenyl-3-yl)-4-phenylpyrrolidine-3-carboxamide hydrochloride] |
| 1 to 10 | O=C(Nc1cc2ccccc2cn1)[C@@H]1CNC[C@H]1c1ccccc1 [Compound I-43, (3S,4R)—N-(Isoquinolin-3-yl)-4-phenylpyrrolidine-3-carboxamide dihydrochloride] |
| 1 to 10 | O=C(Nc1cccc2ccccc12)[C@H]1CNC[C@@H]1c1ccccc1 [Compound I-74, (3R,4S)—N-(Naphthalen-1-yl)-4-phenylpyrrolidine-3-carboxamide hydrochloride] |
| 1 to 10 | O=C(Nc1cccc2ccccc12)[C@@H]1CNC[C@H]1c1ccccc1 [Compound I-75, (3S,4R)—N-(Naphthalen-1-yl)-4-phenylpyrrolidine-3-carboxamide hydrochloride] |
| 1 to 10 | O=C(Nc1cccc2c(Cl)nccc12)[C@H]1CNC[C@@H]1c1ccccc1 [Compound I-83, (3R,4S)—N-(1-Chloroisoquinolin-5-yl)-4-phenylpyrrolidine-3-carboxamide dihydrochloride] |
| 1 to 10 | O=C(Nc1cccc2cnccc12)[C@H]1CNC[C@H]1c1ccccc1 [Compound I-88, (3R,4R)—N-(Isoquinolin-5-yl)-4-phenylpyrrolidine-3-carboxamide dihydrochloride] |
| 1 to 10 | O=C(NCc1cccc2cnccc12)[C@@H]1CNC[C@H]1c1ccccc1 [Compound I-95, (3S,4R)—N-(Isoquinolin-5-ylmethyl)-4-phenylpyrrolidine-3-carboxamide dihydrochloride] |
| 1 to 10 | Cc1nccc2c(NC(=O)[C@H]3CNC[C@@H]3c3ccc(C(F)(F)F)cc3)cccc12 [Compound I-96, (3R,4S)—N-(1-Methylisoquinolin-5-yl)-4-[4-(trifluoromethyl)phenyl]pyrrolidine-3-carboxamide dihydrochloride] |
| < 1 | O=C(Nc1ccc(-c2ccc(C(F)(F)F)nc2)cc1)[C@@H]1CNC[C@H]1c1ccccc1 [Compound I-103, (3S,4R)-4-Phenyl-N-[4-[6-(trifluoromethyl)pyridin-3-yl]phenyl]pyrrolidine-3-carboxamide hydrochloride] |
| < 1 | O=C(Nc1ccc(-c2ccc(F)nc2)cc1)[C@@H]1CNC[C@H]1c1ccccc1 [Compound I-108, (3S,4R)—N-[4-(6-Fluoropyridin-3-yl)phenyl]-4-phenylpyrrolidine-3-carboxamide dihydrochloride] |
| 1 to 10 | O=C(Nc1cccc2ccccc12)[C@H]1CNC[C@@H]1c1ccc(C(F)(F)F)cc1 [Compound I-109, (3R,4S)—N-(Naphthalen-1-yl)-4-[4-(trifluoromethyl)phenyl]pyrrolidine-3-carboxamide hydrochloride] |
| 1 to 10 | O=C(Nc1cccc2ccccc12)[C@@H]1CNC[C@H]1c1ccc(C(F)(F)F)cc1 [Compound I-110, (3S,4R)—N-(Naphthalen-1-yl)-4-[4-(trifluoromethyl)phenyl]pyrrolidine-3-carboxamide hydrochloride] |
| < 1 | N#Cc1ccc(Oc2cccc(NC(=O)[C@H]3CNC[C@@H]3c3ccccc3)c2)cc1 [Compound I-111, (3R,4S)—N-[3-(4-Cyanophenoxy)phenyl]-4-phenylpyrrolidine-3-carboxamide hydrochloride] |
| < 1 | N#Cc1ccc(Oc2cccc(NC(=O)[C@@H]3CNC[C@H]3c3ccccc3)c2)cc1 [Compound I-112, (3S,4R)—N-[3-(4-Cyanophenoxy)phenyl]-4-phenylpyrrolidine-3-carboxamide hydrochloride] |
| 1 to 10 | O=C(Nc1cccc(Nc2ccccc2)c1)[C@H]1CNC[C@@H]1c1ccccc1 [Compound I-113, (3R,4S)-4-Phenyl-N-[3-(phenylamino)phenyl]pyrrolidine-3-carboxamide hydrochloride] |
| 1 to 10 | O=C(Nc1cccc(Nc2ccccc2)c1)[C@@H]1CNC[C@H]1c1ccccc1 [Compound I-114, (3S,4R)-4-Phenyl-N-[3-(phenylamino)phenyl]pyrrolidine-3-carboxamide hydrochloride] |
| < 1 | O=C(NC1CN(c2ccc(F)cc2)C1)[C@@H]1CNC[C@H]1c1ccccc1 [Compound I-118, (3S,4R)-4-Phenyl-N-(1-4-fluorophenylazetidin-3-yl)pyrrolidine-3-carboxamide hydrochloride] |
| < 1 | N#Cc1ccc(N2CCC(NC(=O)[C@@H]3CNC[C@H]3c3ccccc3)CC2)cc1 [Compound I-122, (3S,4R)-3-{[1-(4-Cyanophenyl)lpiperidin-4-yl]carbamoyl]}-4-phenylpyrrolidine dihydrochloride] |
